In US7943638B2, “Carboxamide compound and use of the same” (Sumitomo Chemical Company, Limited, priority 2005, dated 2011):

Test system: wheat scab (Fusarium culmorum)
Experiment: Wheat scab (Fusarium culmorum) controlling effect test (preventive effect)
Format: in vivo
Conditions: 500 ppm flowable preparation, foliage spray on wheat (Shirogane komugi), 23° C. high humidity 4 days, then 23° C. greenhouse 3 days
Method: A plastic pot was charged with a sand loam, and a wheat (Name of plant variety: Shirogane komugi) was seeded, and was grown for 8 days in a greenhouse. Each flowable preparation of the present compound 4 which had been obtained according to Preparation Example 6 was diluted with water to a predetermined concentration (500 ppm) to prepare a spraying solution. Each spraying solution was foliage-sprayed so that the solution was sufficiently adhered to the above adhered to wheat leaves. After spraying, the wheat was air-dried to an extent that the spraying solution on the leaves was dried, then a spore suspension of wheat scab (Fusarium culmorum) (containing about 2000000 spores per 1 ml of the suspension) was spraying-inoculated (at a ratio of about 2 ml per one plant). After inoculation, the wheat was placed at 23° C. under high humidity for 4 days, then placed in a 23° C. greenhouse for 3 days. Thereafter, the controlling effect was investigated.
As a result, an area of a lesion in a plant treated with the present compound 4 was 10% or less of an area of a lesion in a non-treated plant.

Cc1cc(O)c(C(=O)Nc2cccnc2)c(=O)n1C [present compound 4, N-(3-pyridyl)-1,6-dimethyl-4-hydroxy-2-oxo-1,2-dihydropyridine-3-carboxamide]
area of a lesion in a treated plant relative to area of a lesion in a non-treated plant: ≤ 10%
